Data reported in the kinase profiling compilation of Christmann-Franck et al. (2016).

Tests used:
Experiment in all cases: KINOMEscan competition binding
Conditions in all cases: compound 10.0 µM
[1] = biological target: NTRK1 (human) (UniProt P04629)
[2] = biological target: MKNK2 (human) (UniProt Q9HBH9)
[3] = biological target: ROS1 (human) (UniProt P08922)
[4] = biological target: CAMK1D (human) (UniProt Q8IU85)
[5] = biological target: NEK5 (human) (UniProt Q6P3R8)
[6] = biological target: ACVR1B (human) (UniProt P36896)
[7] = biological target: FGFR1 (human) (UniProt P11362)
[8] = biological target: EPHA5 (human) (UniProt P54756)
[9] = biological target: CSNK2A1 (human) (UniProt P68400)
[10] = biological target: TNK2 (human) (UniProt Q07912)
[11] = biological target: YES1 (human) (UniProt P07947)
[12] = biological target: PDPK1 (human) (UniProt O15530)
[13] = biological target: GAK (human) (UniProt O14976)
[14] = biological target: STK32C (human) (UniProt Q86UX6)
[15] = biological target: CDK15 (human) (UniProt Q96Q40)
[16] = biological target: EPHB6 (human) (UniProt O15197)
[17] = biological target: CHUK (human) (UniProt O15111)
[18] = biological target: HCK (human) (UniProt P08631)
[19] = biological target: CDK7 (human) (UniProt P50613)
[20] = biological target: JAK1 JH2 pseudokinase (human) (UniProt P23458)
[21] = biological target: YSK4 (human) (UniProt Q56UN5)
[22] = biological target: NEK11 (human) (UniProt Q8NG66)
[23] = biological target: STK16 (human) (UniProt O75716)
[24] = biological target: CSNK1A1L (human) (UniProt Q8N752)
[25] = biological target: FLT1 (human) (UniProt P17948)
[26] = biological target: RIPK2 (human) (UniProt O43353)
[27] = biological target: LRRK2 (human) (UniProt Q5S007)
[28] = biological target: STK38L (human) (UniProt Q9Y2H1)
[29] = biological target: PAK4 (human) (UniProt O96013)
[30] = biological target: MAP3K4 (human) (UniProt Q9Y6R4)
[31] = biological target: PKN1 (human) (UniProt Q16512)
[32] = biological target: PKN3 (M.tuberculosis) (UniProt Q6P5Z2)
[33] = biological target: TLK1 (human) (UniProt Q9UKI8)
[34] = biological target: RIPK1 (human) (UniProt Q13546)
[35] = biological target: NEK7 (human) (UniProt Q8TDX7)
[36] = biological target: MST1R (human) (UniProt Q04912)
[37] = biological target: STK17B (human) (UniProt O94768)
[38] = biological target: SRPK3 (human) (UniProt Q9UPE1)
[39] = biological target: NEK9 (human) (UniProt Q8TD19)
[40] = biological target: ADCK4 (human) (UniProt Q96D53)

NEK11 (human), sequence (Q8NG66 whole entry, looked up): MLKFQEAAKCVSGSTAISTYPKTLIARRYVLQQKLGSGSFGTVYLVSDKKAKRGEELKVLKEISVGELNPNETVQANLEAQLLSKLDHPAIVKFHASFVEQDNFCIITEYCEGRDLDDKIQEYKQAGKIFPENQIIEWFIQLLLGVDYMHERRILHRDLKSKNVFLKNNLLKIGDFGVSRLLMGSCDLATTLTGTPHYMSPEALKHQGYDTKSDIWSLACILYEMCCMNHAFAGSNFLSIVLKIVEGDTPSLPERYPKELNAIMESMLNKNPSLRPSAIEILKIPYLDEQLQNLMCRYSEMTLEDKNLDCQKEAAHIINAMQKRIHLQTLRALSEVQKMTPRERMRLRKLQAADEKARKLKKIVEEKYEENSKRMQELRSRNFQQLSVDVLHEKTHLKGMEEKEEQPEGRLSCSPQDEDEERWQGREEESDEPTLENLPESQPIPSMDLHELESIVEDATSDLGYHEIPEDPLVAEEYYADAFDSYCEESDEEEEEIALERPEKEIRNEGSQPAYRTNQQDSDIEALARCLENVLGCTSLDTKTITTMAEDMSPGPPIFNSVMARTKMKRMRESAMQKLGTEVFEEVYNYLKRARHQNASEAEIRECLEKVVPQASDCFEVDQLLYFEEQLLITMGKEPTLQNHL
RIPK2 (human), sequence (O43353 whole entry, looked up): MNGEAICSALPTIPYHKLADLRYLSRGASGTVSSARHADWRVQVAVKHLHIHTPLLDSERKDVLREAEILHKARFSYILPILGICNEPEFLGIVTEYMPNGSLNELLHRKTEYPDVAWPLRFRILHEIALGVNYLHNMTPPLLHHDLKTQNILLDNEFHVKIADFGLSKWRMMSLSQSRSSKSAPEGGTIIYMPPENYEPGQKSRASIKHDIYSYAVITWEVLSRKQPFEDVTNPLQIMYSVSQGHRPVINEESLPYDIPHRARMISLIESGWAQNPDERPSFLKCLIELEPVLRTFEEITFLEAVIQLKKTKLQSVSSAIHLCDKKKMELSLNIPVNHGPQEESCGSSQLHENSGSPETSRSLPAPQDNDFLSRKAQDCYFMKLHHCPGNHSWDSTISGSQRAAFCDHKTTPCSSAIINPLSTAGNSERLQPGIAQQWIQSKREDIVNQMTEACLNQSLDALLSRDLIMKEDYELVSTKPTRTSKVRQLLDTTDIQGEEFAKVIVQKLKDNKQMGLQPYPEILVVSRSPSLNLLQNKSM
LRRK2 (human), sequence (Q5S007 whole entry, looked up): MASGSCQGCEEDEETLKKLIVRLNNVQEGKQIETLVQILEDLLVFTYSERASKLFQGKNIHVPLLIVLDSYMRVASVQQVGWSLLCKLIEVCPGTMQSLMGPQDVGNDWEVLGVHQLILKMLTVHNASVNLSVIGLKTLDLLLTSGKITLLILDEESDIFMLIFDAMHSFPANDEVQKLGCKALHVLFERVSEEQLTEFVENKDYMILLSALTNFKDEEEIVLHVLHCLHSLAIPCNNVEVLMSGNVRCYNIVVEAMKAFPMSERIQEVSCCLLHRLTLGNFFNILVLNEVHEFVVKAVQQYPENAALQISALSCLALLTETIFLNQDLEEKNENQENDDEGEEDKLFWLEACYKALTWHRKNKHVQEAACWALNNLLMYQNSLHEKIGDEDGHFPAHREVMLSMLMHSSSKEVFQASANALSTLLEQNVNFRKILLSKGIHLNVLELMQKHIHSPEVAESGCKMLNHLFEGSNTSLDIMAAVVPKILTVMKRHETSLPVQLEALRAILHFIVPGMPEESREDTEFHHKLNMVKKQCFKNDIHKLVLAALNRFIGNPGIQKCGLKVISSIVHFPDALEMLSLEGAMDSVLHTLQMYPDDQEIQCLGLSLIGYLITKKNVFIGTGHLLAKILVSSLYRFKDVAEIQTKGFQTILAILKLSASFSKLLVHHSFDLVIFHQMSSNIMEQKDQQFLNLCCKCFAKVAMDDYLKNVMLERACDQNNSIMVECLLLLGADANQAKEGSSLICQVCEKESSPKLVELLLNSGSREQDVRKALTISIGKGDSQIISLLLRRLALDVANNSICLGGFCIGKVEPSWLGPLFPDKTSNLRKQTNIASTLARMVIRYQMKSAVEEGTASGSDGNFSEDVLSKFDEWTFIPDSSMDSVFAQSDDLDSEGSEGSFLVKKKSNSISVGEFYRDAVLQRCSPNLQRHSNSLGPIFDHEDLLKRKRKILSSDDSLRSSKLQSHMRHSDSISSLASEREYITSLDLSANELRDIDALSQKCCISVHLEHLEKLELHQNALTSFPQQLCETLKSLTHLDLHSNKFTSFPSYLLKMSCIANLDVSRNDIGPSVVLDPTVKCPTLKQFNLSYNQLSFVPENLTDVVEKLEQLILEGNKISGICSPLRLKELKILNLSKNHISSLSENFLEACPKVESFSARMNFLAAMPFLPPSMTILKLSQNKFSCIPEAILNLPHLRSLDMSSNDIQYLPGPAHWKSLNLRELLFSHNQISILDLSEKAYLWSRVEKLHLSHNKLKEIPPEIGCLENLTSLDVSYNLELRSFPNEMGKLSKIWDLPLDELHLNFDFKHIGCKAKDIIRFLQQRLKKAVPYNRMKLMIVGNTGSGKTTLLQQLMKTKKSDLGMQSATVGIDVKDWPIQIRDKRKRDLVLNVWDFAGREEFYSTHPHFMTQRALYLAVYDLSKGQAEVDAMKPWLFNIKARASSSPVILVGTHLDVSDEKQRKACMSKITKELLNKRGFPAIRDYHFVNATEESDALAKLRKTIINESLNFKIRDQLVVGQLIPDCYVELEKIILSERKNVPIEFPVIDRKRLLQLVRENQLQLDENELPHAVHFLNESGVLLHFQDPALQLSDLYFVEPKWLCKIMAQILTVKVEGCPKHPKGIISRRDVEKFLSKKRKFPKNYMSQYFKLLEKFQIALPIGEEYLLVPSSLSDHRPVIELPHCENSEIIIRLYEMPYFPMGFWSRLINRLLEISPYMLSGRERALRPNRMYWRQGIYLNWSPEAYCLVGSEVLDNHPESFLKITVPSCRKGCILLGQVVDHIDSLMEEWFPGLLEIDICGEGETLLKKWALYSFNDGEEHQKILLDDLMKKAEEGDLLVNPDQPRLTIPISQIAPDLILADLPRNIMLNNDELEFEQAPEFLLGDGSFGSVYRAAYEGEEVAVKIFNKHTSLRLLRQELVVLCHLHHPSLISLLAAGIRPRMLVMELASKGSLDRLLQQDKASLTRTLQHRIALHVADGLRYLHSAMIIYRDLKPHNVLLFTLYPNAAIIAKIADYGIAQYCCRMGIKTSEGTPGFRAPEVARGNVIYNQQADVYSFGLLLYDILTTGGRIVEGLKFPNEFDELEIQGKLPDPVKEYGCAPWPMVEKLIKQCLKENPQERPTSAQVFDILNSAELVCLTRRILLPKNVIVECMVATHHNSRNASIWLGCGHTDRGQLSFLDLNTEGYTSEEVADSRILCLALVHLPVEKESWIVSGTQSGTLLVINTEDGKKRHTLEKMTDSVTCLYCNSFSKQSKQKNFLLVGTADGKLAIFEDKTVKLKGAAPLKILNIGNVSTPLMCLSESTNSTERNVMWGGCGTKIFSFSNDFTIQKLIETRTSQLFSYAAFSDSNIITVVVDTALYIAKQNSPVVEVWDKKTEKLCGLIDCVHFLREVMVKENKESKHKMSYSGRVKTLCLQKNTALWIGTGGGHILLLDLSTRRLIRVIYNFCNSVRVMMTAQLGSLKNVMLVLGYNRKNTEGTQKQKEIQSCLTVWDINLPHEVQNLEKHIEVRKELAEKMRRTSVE
CDK15 (human), sequence (Q96Q40 whole entry, looked up): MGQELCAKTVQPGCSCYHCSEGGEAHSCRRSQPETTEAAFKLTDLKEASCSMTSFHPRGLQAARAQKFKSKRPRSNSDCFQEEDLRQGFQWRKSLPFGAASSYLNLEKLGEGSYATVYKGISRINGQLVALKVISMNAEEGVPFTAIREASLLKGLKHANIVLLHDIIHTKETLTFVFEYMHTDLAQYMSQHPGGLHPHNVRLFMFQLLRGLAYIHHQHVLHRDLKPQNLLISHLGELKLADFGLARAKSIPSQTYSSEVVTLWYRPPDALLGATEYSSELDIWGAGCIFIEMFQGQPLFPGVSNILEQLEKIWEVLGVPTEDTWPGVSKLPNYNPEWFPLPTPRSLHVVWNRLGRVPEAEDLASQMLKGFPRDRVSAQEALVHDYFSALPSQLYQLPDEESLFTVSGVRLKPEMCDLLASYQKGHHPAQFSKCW
STK38L (human), sequence (Q9Y2H1 whole entry, looked up): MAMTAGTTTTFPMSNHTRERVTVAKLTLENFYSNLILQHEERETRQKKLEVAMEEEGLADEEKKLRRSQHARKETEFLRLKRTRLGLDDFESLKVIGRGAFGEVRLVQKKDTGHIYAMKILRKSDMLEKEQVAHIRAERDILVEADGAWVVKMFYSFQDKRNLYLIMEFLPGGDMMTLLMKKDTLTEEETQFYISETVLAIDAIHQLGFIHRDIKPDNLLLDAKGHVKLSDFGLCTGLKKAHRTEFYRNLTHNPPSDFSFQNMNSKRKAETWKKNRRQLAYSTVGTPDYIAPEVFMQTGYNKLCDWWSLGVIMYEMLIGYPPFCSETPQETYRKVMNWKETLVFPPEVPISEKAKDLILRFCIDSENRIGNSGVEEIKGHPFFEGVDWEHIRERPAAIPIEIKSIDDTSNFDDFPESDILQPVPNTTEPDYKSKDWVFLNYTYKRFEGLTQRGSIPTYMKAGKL
STK32C (human), sequence (Q86UX6 whole entry, looked up): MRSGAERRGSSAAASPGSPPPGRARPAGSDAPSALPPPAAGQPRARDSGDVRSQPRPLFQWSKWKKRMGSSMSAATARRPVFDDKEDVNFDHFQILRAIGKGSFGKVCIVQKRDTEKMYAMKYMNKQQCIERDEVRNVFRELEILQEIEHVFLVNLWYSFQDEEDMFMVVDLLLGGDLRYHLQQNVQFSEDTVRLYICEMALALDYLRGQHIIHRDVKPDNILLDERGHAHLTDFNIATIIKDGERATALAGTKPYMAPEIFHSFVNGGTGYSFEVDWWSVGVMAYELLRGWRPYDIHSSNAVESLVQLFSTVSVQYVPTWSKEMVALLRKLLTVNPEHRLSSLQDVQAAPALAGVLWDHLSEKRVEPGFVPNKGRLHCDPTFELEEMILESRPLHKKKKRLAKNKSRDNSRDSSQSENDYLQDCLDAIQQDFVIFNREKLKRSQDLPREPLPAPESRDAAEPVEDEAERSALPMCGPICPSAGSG

SMILES	kinase still bound, per cent of control [1] [%]	kinase still bound, per cent of control [2] [%]	kinase still bound, per cent of control [3] [%]	kinase still bound, per cent of control [4] [%]	kinase still bound, per cent of control [5] [%]	kinase still bound, per cent of control [6] [%]	kinase still bound, per cent of control [7] [%]	kinase still bound, per cent of control [8] [%]	kinase still bound, per cent of control [9] [%]	kinase still bound, per cent of control [10] [%]	kinase still bound, per cent of control [11] [%]	kinase still bound, per cent of control [12] [%]	kinase still bound, per cent of control [13] [%]	kinase still bound, per cent of control [14] [%]	kinase still bound, per cent of control [15] [%]	kinase still bound, per cent of control [16] [%]	kinase still bound, per cent of control [17] [%]	kinase still bound, per cent of control [18] [%]	kinase still bound, per cent of control [19] [%]	kinase still bound, per cent of control [20] [%]	other results
COc1ccc(N(C(=O)Oc2c(C)cccc2C)c2ccnc(Nc3ccc(N4CCN(C)CC4)cc3)n2)c(OC)c1	78	90	0.8	100	85	1	0.25	0.15	66	0	0.05	82	5.6	19	94	1.2	92	0.15	100	84	kinase still bound, per cent of control [21]: 6%; kinase still bound, per cent of control [22]: 100%; kinase still bound, per cent of control [23]: 15%; kinase still bound, per cent of control [24]: 100%; kinase still bound, per cent of control [25]: 11%; kinase still bound, per cent of control [26]: 0%; kinase still bound, per cent of control [27]: 78%; kinase still bound, per cent of control [28]: 100%; kinase still bound, per cent of control [29]: 97%; kinase still bound, per cent of control [30]: 23%; kinase still bound, per cent of control [31]: 15%; kinase still bound, per cent of control [32]: 90%; kinase still bound, per cent of control [33]: 45%; kinase still bound, per cent of control [34]: 63%; kinase still bound, per cent of control [35]: 80%; kinase still bound, per cent of control [36]: 16%; kinase still bound, per cent of control [37]: 100%; kinase still bound, per cent of control [38]: 11%; kinase still bound, per cent of control [39]: 100%; kinase still bound, per cent of control [40]: 20%
O=C1NC(=O)/C(=C/c2ccc3nccc(-c4ccncc4)c3c2)S1	78	49	78	57	100	51	81	91	7.9	100	84	62	0	96	9.6	39	44	75	1.7	57	kinase still bound, per cent of control [21]: 0.05%; kinase still bound, per cent of control [22]: 72%; kinase still bound, per cent of control [23]: 4.9%; kinase still bound, per cent of control [24]: 55%; kinase still bound, per cent of control [25]: 73%; kinase still bound, per cent of control [26]: 30%; kinase still bound, per cent of control [27]: 62%; kinase still bound, per cent of control [28]: 100%; kinase still bound, per cent of control [29]: 75%; kinase still bound, per cent of control [30]: 96%; kinase still bound, per cent of control [31]: 56%; kinase still bound, per cent of control [32]: 36%; kinase still bound, per cent of control [33]: 81%; kinase still bound, per cent of control [34]: 100%; kinase still bound, per cent of control [35]: 88%; kinase still bound, per cent of control [36]: 100%; kinase still bound, per cent of control [37]: 0.6%; kinase still bound, per cent of control [38]: 31%; kinase still bound, per cent of control [39]: 95%; kinase still bound, per cent of control [40]: 35%
